Source: the NIST ThermoML archive (doi:10.1016/j.tca.2004.11.022)

How the values were obtained:
[1] = xn = mol fraction of the nth substance listed; settings: 101 kPa, Liquid; for mass density: Vibrating tube method; for speed of sound: Pulse-echo method
[2] = molar heat capacity at constant pressure; xn = mol fraction of the nth substance listed; settings: 101 kPa, Liquid, Small sample (50 mg) DSC

CCCCCCCCC [nonane] + COC(=O)OC
Settings | mass density [kg/m3] | molar heat capacity at constant pressure [J/K/mol] | speed of sound [m/s]
[1], 288.15 K, x2 = 0.05335 | 729.39 | – | –
[1], 288.15 K, x2 = 0.1009 | 736.94 | – | –
[1], 288.15 K, x2 = 0.1998 | 754.47 | – | –
[1], 288.15 K, x2 = 0.2963 | 774.22 | – | –
[1], 288.15 K, x2 = 0.3965 | 798.13 | – | –
[1], 288.15 K, x2 = 0.4978 | 826.3 | – | –
[1], 288.15 K, x2 = 0.5983 | 859.19 | – | –
[1], 288.15 K, x2 = 0.6976 | 897.72 | – | –
[1], 288.15 K, x2 = 0.7982 | 944.58 | – | –
[1], 288.15 K, x2 = 0.8985 | 1002.3 | – | –
[1], 293.15 K, x2 = 0.05335 | 725.45 | – | –
[1], 293.15 K, x2 = 0.1009 | 732.86 | – | –
[1], 293.15 K, x2 = 0.1998 | 750.26 | – | –
[1], 293.15 K, x2 = 0.2963 | 769.82 | – | –
[1], 293.15 K, x2 = 0.3965 | 793.41 | – | –
[1], 293.15 K, x2 = 0.4978 | 821.39 | – | –
[1], 293.15 K, x2 = 0.5983 | 853.92 | – | –
[1], 293.15 K, x2 = 0.6976 | 892.23 | – | –
[1], 293.15 K, x2 = 0.7982 | 938.72 | – | –
[1], 293.15 K, x2 = 0.8985 | 996.2 | – | –
[1], 298.15 K, x2 = 0.05335 | 721.48 | – | 1198.5
[1], 298.15 K, x2 = 0.1009 | 728.79 | – | 1191.8
[1], 298.15 K, x2 = 0.1998 | 746.03 | – | 1180
[1], 298.15 K, x2 = 0.2963 | 765.4 | – | 1170.5
[1], 298.15 K, x2 = 0.3965 | 788.73 | – | 1162.4
[1], 298.15 K, x2 = 0.4978 | 816.45 | – | 1156.8
[1], 298.15 K, x2 = 0.5983 | 848.67 | – | 1153.4
[1], 298.15 K, x2 = 0.6976 | 886.73 | – | 1153.5
[1], 298.15 K, x2 = 0.7982 | 932.9 | – | 1158.2
[1], 298.15 K, x2 = 0.8985 | 990.1 | – | 1171.2
[1], 308.15 K, x2 = 0.05335 | 713.45 | – | –
[1], 308.15 K, x2 = 0.1009 | 720.68 | – | –
[1], 308.15 K, x2 = 0.1998 | 737.48 | – | –
[1], 308.15 K, x2 = 0.2963 | 756.46 | – | –
[1], 308.15 K, x2 = 0.3965 | 779.36 | – | –
[1], 308.15 K, x2 = 0.4978 | 806.49 | – | –
[1], 308.15 K, x2 = 0.5983 | 838.24 | – | –
[1], 308.15 K, x2 = 0.6976 | 875.62 | – | –
[1], 308.15 K, x2 = 0.7982 | 921.26 | – | –
[1], 308.15 K, x2 = 0.8985 | 977.7 | – | –
[2], 288.15 K, x2 = 0.05262 | – | 273.59 | –
[2], 288.15 K, x2 = 0.1012 | – | 267.97 | –
[2], 288.15 K, x2 = 0.1514 | – | 262.27 | –
[2], 288.15 K, x2 = 0.2001 | – | 256.97 | –
[2], 288.15 K, x2 = 0.297 | – | 247.1 | –
[2], 288.15 K, x2 = 0.4018 | – | 237.24 | –
[2], 288.15 K, x2 = 0.452 | – | 232.75 | –
[2], 288.15 K, x2 = 0.5014 | – | 228.4 | –
[2], 288.15 K, x2 = 0.5514 | – | 223.85 | –
[2], 288.15 K, x2 = 0.6024 | – | 218.72 | –
[2], 288.15 K, x2 = 0.6477 | – | 213.45 | –
[2], 288.15 K, x2 = 0.6978 | – | 206.69 | –
[2], 288.15 K, x2 = 0.7944 | – | 191.68 | –
[2], 288.15 K, x2 = 0.845 | – | 183.74 | –
[2], 288.15 K, x2 = 0.9016 | – | 175.65 | –
[2], 288.15 K, x2 = 0.9486 | – | 169.8 | –
[2], 298.15 K, x2 = 0.05262 | – | 277.51 | –
[2], 298.15 K, x2 = 0.1012 | – | 271.68 | –
[2], 298.15 K, x2 = 0.1514 | – | 265.73 | –
[2], 298.15 K, x2 = 0.2001 | – | 260.11 | –
[2], 298.15 K, x2 = 0.297 | – | 249.53 | –
[2], 298.15 K, x2 = 0.4018 | – | 238.51 | –
[2], 298.15 K, x2 = 0.452 | – | 233.42 | –
[2], 298.15 K, x2 = 0.5014 | – | 228.22 | –
[2], 298.15 K, x2 = 0.5514 | – | 222.78 | –
[2], 298.15 K, x2 = 0.6024 | – | 217.1 | –
[2], 298.15 K, x2 = 0.6477 | – | 211.64 | –
[2], 298.15 K, x2 = 0.6978 | – | 205.13 | –
[2], 298.15 K, x2 = 0.7944 | – | 191.78 | –
[2], 298.15 K, x2 = 0.845 | – | 184.48 | –
[2], 298.15 K, x2 = 0.9016 | – | 176.75 | –
[2], 298.15 K, x2 = 0.9486 | – | 170.87 | –
[2], 308.15 K, x2 = 0.05262 | – | 281.91 | –
[2], 308.15 K, x2 = 0.1012 | – | 275.81 | –
[2], 308.15 K, x2 = 0.1514 | – | 269.66 | –
[2], 308.15 K, x2 = 0.2001 | – | 263.87 | –
[2], 308.15 K, x2 = 0.297 | – | 252.77 | –
[2], 308.15 K, x2 = 0.4018 | – | 241.06 | –
[2], 308.15 K, x2 = 0.452 | – | 235.55 | –
[2], 308.15 K, x2 = 0.5014 | – | 230.02 | –
[2], 308.15 K, x2 = 0.5514 | – | 224.27 | –
[2], 308.15 K, x2 = 0.6024 | – | 218.19 | –
[2], 308.15 K, x2 = 0.6477 | – | 212.66 | –
[2], 308.15 K, x2 = 0.6978 | – | 206.01 | –
[2], 308.15 K, x2 = 0.7944 | – | 192.97 | –
[2], 308.15 K, x2 = 0.845 | – | 185.93 | –
[2], 308.15 K, x2 = 0.9016 | – | 178.33 | –
[2], 308.15 K, x2 = 0.9486 | – | 172.4 | –
